{"source": "patent US20170027854A1", "about": "“Methods And Compositions For Improving The Appearance Of Skin” (ELC Management LLC, priority 2015, published 2017)", "system": "SIRT6", "assay": "SIRT6 expression in normal human epidermal keratinocytes by immunohistochemistry", "format": "cell-based", "details": "1% and 3% of a 50 ppm peptide solution, FIG. 2", "protocol": "SIRT6 is a member of the conserved family of sirtuin proteins which are associated with metabolism and longevity. SIRT6 is a histone 3, lysine 9 (H3K9) deacetylase and is primarily involved in DNA repair and telomere stability. The peptide of (SEQ ID No. 5) Gly-Ala-Gly-Val-Ser-Ala-Glu-NH2 was tested for Sirt6 stimulating activity as follows.\nNormal Human Epidermal Keratinocytes p3\n• 1. Cells were plated into 4 well chamber slides @ 10,000 cells/chamber and incubated at 37° C., 5% CO2 & 95% humidity for 24 hours. • 2. The peptide of SEQ ID No. 5 was prepared as follows: • 2.1. Dissolved 5 mg peptide in 5 ml medium to make a 1000 ppm stock solution. • 2.2. Diluted the stock solution to 50 ppm by combining 400 μl 1000 ppm stock solution with 7.6 ml medium • 2.3. Prepared a 3% of the 50 ppm solution by combining 1.5 ml 50 ppm stock with 48.5 ml medium • 2.4. Prepared a 1% of the 50 ppm solution by combining 0.5 ml 50 ppm stock with […] medium • 3. Placed treatments (500 μl per chamber) on cells for 48 h, refreshing treatments after 24 h • 4. Aspirated media and replaced with the appropriate treatments. Incubated for 1 & 6 hours. • 5. Performed immunohistochemistry on the cells\n• 6. Prepared Wash Buffer (0.2% Triton X-100):\n6.1. Add 1 mL of Triton X-100 to 499 ml of 1×PBS • 7. Prepared Block Solution (1%/10 mg/ml BSA)\n7.1. Added 5 g of BSA into a final volume of 500 ml of 1×PBS • 8. […]", "note": "Ends that are not written are not given here.", "data": [{"substance": "Gly-Ala-Gly-Val-Ser-Ala-Glu-NH2 (GAGVSAE-NH2) [SEQ ID No. 5]", "values": [{"measurement": "SIRT6 expression", "value": "dose dependent increase in SIRT6 expression"}]}]}
